Data: patent publication US8883415B2, “Aza-benzazolium containing cyanine dyes” (Life Technologies Corporation, priority 1999, dated 2014)
Entries after “also recorded” stand apart in the source; their conditions may differ.

How the values were obtained:
[1] = system: double-stranded bacteriophage λ cl857 DNA that is digested with HindIII restriction endonuclease; assay: Detecting nucleic acids in gels; assay type: binding; settings: 1 micromolar dye
Experimental: DNA samples are loaded onto agarose or polyacrylamide gels and electrophoresed using standard conditions. Selected dyes of the invention are dissolved in DMSO at a concentration of 1-10 micromolar and diluted into 0.5×TBE buffer to a final concentration of 1 micromolar dye. Gels are incubated for 20-90 minutes in this staining solution, with gentle agitation, at room temperature, protected from light. Nucleic acids are visualized by transillumination at 300 nm, followed by direct visual detection or photography using Polaroid black-and-white print film. Nucleic acids are alternatively visualized by scanning using a FMBIO II laser scanner with a 532 nm frequency-doubled YAG laser source or a charge-coupled device camera system coupled with an ultraviolet (300 nm) light source, or a visible light transilluminator.

[2] = system: double-stranded bacteriophage λ cl857 DNA that is digested with HindIII restriction endonuclease; assay: Detecting nucleic acids in gels; assay type: binding; settings: POLAROID 667 B&W film; FOTODYNE 254 nm epi.; 1 micromolar dye
double-stranded DNA [3] = assay: Detecting double-stranded DNA in solution (fluorescence microplate reader); assay type: binding; settings: Excitation 540 nm/Emission 570 nm
Experimental: Samples containing 0.1 ng/mL to 1 microgram/mL double-stranded DNA are prepared in 10 mM Tris-HCl, 1 mM EDTA, pH 7.5. The selected dye of the invention is dissolved in DMSO at a concentration of 1-10 mM and then diluted into the same buffer at a concentration sufficient to achieve final optical densities of 0.1 and 0.01 at 500 nm, 530 nm, 540 nm or 560 nm. Equal volumes (100 microliters each) of DNA sample solution and dye solution at each concentration are combined and mixed gently at room temperature in a microplate well.
Samples are allowed to equilibrate for 5-60 minutes, protected from light, and the fluorescence of the sample is measured using a fluorescence microplate reader. DNA concentration is determined by comparison of the sample fluorescence with a standard curve obtained with that dye for each dye concentration. The sensitivity limit of several dyes in this assay is shown (Table 5).

double-stranded DNA [4] = assay: Detecting double-stranded DNA in the presence of single-stranded DNA; assay type: binding; settings: nucleic acids 2 micrograms/mL; dye 1 micromolar; excitation 540 nm, emission 570 nm
Experimental: Samples containing nucleic acids at a concentration of 2 micrograms/mL are combined with Compound 16, Compound 22, or Compound 24 at a final dye concentration of 1 micromolar in 10 mM Tris-HCl, 1 mM EDTA, pH 7.5, and mixed gently. The resulting mixture is allowed to incubate for 5-60 minutes at room temperature, protected from light, and sample fluorescence is measured using a fluorescence microplate reader, with excitation at 540 nm and emission at 570 nm. […] If, however, the dye concentration is reduced relative to the concentration of single-stranded nucleic acids, the fluorescence upon binding those nucleic acids increases relative to that of the double-stranded DNA-dye complex. Thus the assay is always performed in sufficient dye excess.

bovine serum albumin = bovine serum albumin (Bos taurus, UniProt P02769); assay: Detecting proteins in solution; assay type: binding; settings: 2 micromolar dye, 0.05% SDS; either 10 minutes at 90° C. or 5-60 minutes at room temperature
bovine serum albumin, sequence (P02769 25-607): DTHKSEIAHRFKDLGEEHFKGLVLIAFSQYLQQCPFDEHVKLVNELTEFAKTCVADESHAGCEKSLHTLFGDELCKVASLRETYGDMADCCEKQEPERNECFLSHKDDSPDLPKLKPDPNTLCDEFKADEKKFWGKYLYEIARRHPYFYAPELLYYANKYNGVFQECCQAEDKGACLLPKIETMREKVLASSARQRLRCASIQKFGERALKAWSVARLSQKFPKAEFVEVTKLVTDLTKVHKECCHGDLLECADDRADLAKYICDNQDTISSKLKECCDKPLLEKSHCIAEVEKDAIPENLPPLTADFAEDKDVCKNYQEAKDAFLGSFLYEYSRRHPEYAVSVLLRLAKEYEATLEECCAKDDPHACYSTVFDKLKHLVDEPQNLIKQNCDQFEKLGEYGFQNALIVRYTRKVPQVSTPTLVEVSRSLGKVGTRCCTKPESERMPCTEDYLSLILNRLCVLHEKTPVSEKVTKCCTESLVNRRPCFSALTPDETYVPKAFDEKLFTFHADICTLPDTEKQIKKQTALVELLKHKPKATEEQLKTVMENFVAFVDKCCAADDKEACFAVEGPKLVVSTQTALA
Experimental: Compound 51 and Compound 44 are dissolved in DMSO at 1-10 mM and then diluted into 10 mM Tris-HCl, 1 mM EDTA, pH 7.5, containing 0.05% sodium dodecyl sulfate, to a final concentration of 2 micromolar. This dye solution is combined with samples containing bovine serum albumin at 100 ng/mL to 10 micrograms/mL. Samples are optionally incubated for 10 minutes at 90° C. and then cooled to room temperature, or are incubated for 5-60 minutes at room temperature. Fluorescence is measured using a fluorescence microplate reader with excitation at 540 nm and emission at 590 nm for Compound 44 and with excitation at 600 nm and emission at 670 nm for Compound 51. The fluorescence signal obtained from Compound 44 or 51 in buffer alone (control) is subtracted from the fluorescence recorded for the protein-containing samples in order to determine the intensity of the signal that is due to the presence of protein. Protein concentrations are then determined by comparison of the signal intensity thus obtained with the signals obtained using a dilution series of known concentration prepared using either the same protein or a protein standard, such as bovine serum albumin. The sensitivity limit for either dye under either condition is about 100 ng/mL bovine serum albumin (FIGS. 3 and 4).

DNA = assay: Excitation and emission wavelengths when associated with DNA; assay type: physicochemical
[5] = BOEHRINGER MANNHEIM LUMIIMAGER CCD, 300 nm trans., 520 nm em.
[6] = BOEHRINGER MANNHEIM LUMIIMAGER CCD, 300 nm trans., 545 nm em
[7] = HITACHI FMBIO II laser scanner, 532 nm freq.-doubled YAG laser
[8] = POLAROID 667 B&W film, DARK READER visible light box
[9] = POLAROID 667 B&W film, FOTODYNE 300 nm trans.

Row | SMILES | Sensitivity for detecting double-stranded DNA in agarose gels [1, 5] [pg] | Sensitivity for detecting double-stranded DNA in agarose gels [1, 6] [pg] | Sensitivity for detecting double-stranded DNA in agarose gels [1, 7] [pg] | Sensitivity for detecting double-stranded DNA in agarose gels [1, 8] [pg] | Sensitivity for detecting double-stranded DNA in agarose gels [1, 9] [pg] | Sensitivity for detecting double-stranded DNA in agarose gels [2] [pg] | Sensitivity Limit, High dye concentration (0.1 OD) (double-stranded DNA [3]) [ng/mL] | Sensitivity Limit, Low dye concentration (0.01 OD) (double-stranded DNA [3]) [ng/mL] | Preferential fluorescent staining of double-stranded DNA in the presence of single-stranded DNA and RNA (double-stranded DNA [4]) | Sensitivity limit for bovine serum albumin (bovine serum albumin) | Emission wavelength (DNA) [nm] | Excitation wavelength (DNA) [nm]
1 | CN1C(c2ccccc2)=C/C(=C\c2nc3c(ccc[n+]3C)o2)c2ccccc21.[I-] [Compound 16] | 210 | 50 | 25 | 240 | 120 | 30 | <10 | 1.0 | preferential fluorescent staining of double-stranded DNA; also recorded: detected preferentially | – | – | –
2 | CCN(CC)Cc1ccc(C2=C/C(=C\c3nc4c(ccc[n+]4C)o3)c3ccccc3N2C)cc1.[I-] [Compound 22] | 830 | 50 | 7 | 60 | 120 | 30 | 10 | 1.0 | preferential fluorescent staining of double-stranded DNA; also recorded: detected preferentially | – | – | –
3 | CC[N+](C)(CC)Cc1ccc(C2=C/C(=C\c3nc4c(ccc[n+]4C)o3)c3ccccc3N2C)cc1 [Compound 24] | 420 | 50 | 5 | 120 | 60 | 30 | 10 | 5.0 | detected preferentially | – | – | –
4 | CCCCC1=C/C(=C\c2nc3c(cc(Br)c[n+]3C)s2)c2ccccc2N1c1ccccc1.[I-] [Compound 44] | – | – | – | – | – | – | – | – | – | about 100 ng/mL | – | –
5 | CN1C(c2ccccc2)=C/C(=C\C=C\c2nc3c(ccc[n+]3C)o2)c2ccccc21.[I-] [Compound 51] | – | – | – | – | – | – | – | – | – | about 100 ng/mL | – | –
6 | CN1C=C/C(=C\C(=C\c2sc3ccccc3[n+]2C)c2ccccc2)c2ccccc21 [Compound 60] | – | – | – | – | – | – | – | – | – | – | 659 | 642
